According to patent US20220204497A1, “NOVEL COMPOUND HAVING ANTICANCER ACTIVITY, AND METHOD FOR PRODUCING SAME” (MEDICINAL BIOCONVERGENCE RESEARCH CENTER, priority 2019, published 2022):

Key:
A549 cells = assay: Cell viability by MTT method in A549 cells; assay type: cell-based; design: concentration or dose not given beside the values; conditions: 72 hours treatment
AIMP2-DX2 = molecular target: T1, AIMP2-DX2 (Homo sapiens, UniProt Q13155); assay: DX2-nanoluciferase assay (DX2 expression change) in transfected A549 cells; conditions: A549, 4 h; for inhibition at 40 µM: read-out: DX-Nanoluciferase activity (40 μM), 40 μM, 4 hours treatment, A549 cells transfected with nanoluciferase-DX2, inhibitory effect on AIMP2-DX2 expression; for inhibition at 10 µM: read-out: DX-Nanoluciferase activity (10 μM), 10 μM, 4 hours treatment, A549 cells transfected with nanoluciferase-DX2
T1 sequence (Q13155 1-251 isoform Q13155-2): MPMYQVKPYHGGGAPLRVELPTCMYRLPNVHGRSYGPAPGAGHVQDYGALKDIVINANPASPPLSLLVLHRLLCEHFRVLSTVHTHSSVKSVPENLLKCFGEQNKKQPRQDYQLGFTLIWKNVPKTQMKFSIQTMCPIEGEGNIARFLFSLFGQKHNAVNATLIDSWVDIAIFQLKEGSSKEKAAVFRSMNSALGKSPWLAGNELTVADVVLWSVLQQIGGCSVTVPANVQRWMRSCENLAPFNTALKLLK
Procedure: After cloning DX2 into a plasmid expressing nanoluciferase, the plasmid was transfected into A549 cells. Transfected cells were seeded 1×10^4 per well in a 96-well plate and stabilized for 12 hours. […] Cell viability was measured by the MTT method after 72 hours of treatment with each concentration of the compound in A549 cells.

| SMILES | inhibition at 40 µM (AIMP2-DX2) [%] | inhibition at 10 µM (AIMP2-DX2) [%] | Cell Viability (% inhibition) (A549) (A549 cells) [%] |
| --- | --- | --- | --- |
| Cc1ccc(S(=O)(=O)N[C@@H](CC(C)C)C(=O)N2CCOCCOCCOCC2)cc1 [Compound 3, (S)-4-methyl-N-(4-methyl-1-oxo-1-(1,4,7-trioxa-10-azacyclododecan-10-yl)pentan-2-yl)benzenesulfonamide] | 55.8 ± 14.8 | – | 8.64 |
| Cc1ccc(S(=O)(=O)N[C@H](CC(C)C)C(=O)N2CCOCCOCCOCC2)cc1 [Compound 4, (R)-4-methyl-N-(4-methyl-1-oxo-1-(1,4,7-trioxa-10-azacyclododecan-10-yl)-Pentan-2-yl)benzenesulfonamide] | 10.7 ± 12.8 | – | 15.11 |
| Cc1ccc(S(=O)(=O)N[C@@H](CC(C)C)C(=O)N2CCS(=O)(=O)CC2)cc1 [Compound 5, (S)—N-(1-(1,1-dioxidothiomorpholino)-4-methyl-1-oxopentan-2-yl)-4-methylbenzenesulfonamide] | 47.4 ± 7.4 | – | 15.98 |
| Cc1ccc(S(=O)(=O)N[C@@H](CC(C)C)C(=O)N2CCC[C@@H]2CO)cc1 [Compound 6, N—((S)-1-((R)-2-(hydroxymethyl)pyrrolidin-1-yl)-4-methyl-1-oxopentan-2-yl)-4-methylbenzenesulfonamide] | 39.9 ± 7.4 | – | 15.98 |
| Cc1ccc(S(=O)(=O)N[C@@H](CC(C)C)C(=O)Nc2ccc(N3CCC(C)CC3)nc2)cc1 [Compound 9, (S)-4-Methyl-2-(4-methylphenylsulfonamido)-N-(6-(4-methylpiperidin-1-yl)pyridin-3-yl)pentanamide] | 18.3 | – | 78.3 |
| Cc1ccc(S(=O)(=O)N[C@@H](CC(C)C)C(=O)Nc2cc(N3CCC(C)CC3)ncn2)cc1 [Compound 10, (S)-4-methyl-2-(4-methylphenylsulfonamido)-N-(6-(4-methylpiperidin-1-yl)pyrimidin-4-yl)pentanamide] | 1.5 | – | 72.7 |
| Cc1ccc(S(=O)(=O)N[C@@H](CC(=O)O)C(=O)Nc2ccc(N3CCOCC3)cc2)cc1 [Compound 145, (S)-3-(4-Methylphenylsulfonamido)-4-(4-morpholinophenylamino)-4-oxobutanoic acid] | -11.1 ± 19.2 | – | – |
| C[C@]12C[C@@H]3C[C@](C)(C1)C[C@@](NC(=O)[C@H](Cc1c[nH]c4ccccc14)NS(=O)(=O)c1ccc(Br)cc1)(C3)C2 [Compound 214, (S)-2-(4-Bromophenylsulfonamido)-N-((1r,3R,5S,7S)-3,5-dimethyladamantan-1-yl)-3-(1H-indol-3-yl)propanamide] | – | – | 86.93 ± 0.26 |
| Cc1ccc(C(=O)N[C@@H](Cc2c[nH]c3ccccc23)C(=O)OCc2ccccc2)cc1 [Compound 216, (S)-Benzyl 3-(1H-indol-3-yl)-2-(4-methylbenzamido)propanoate] | – | – | 69.96 ± 2.46 |
| COC(=O)c1ccc(-c2csc(NC(=O)[C@H](Cc3c[nH]c4ccccc34)NS(=O)(=O)c3ccc(C)cc3)n2)cc1 [Compound 227, (S)-Methyl 4-(2-(3-(1H-indol-3-yl)-2-(4-methylphenylsulfonamido)propanamido)thiazol-4-yl)benzoate] | – | – | 84.63 ± 0.51 |
| Cc1ccc(S(=O)(=O)N[C@@H](Cc2c[nH]c3ccccc23)C(=O)Nc2nc(-c3ccc(C(=O)O)cc3)cs2)cc1 [Compound 228, (S)-4-(2-(3-(1H-indol-3-yl)-2-(4-methylphenylsulfonamido)propanamido)thiazol-4-yl)benzoic acid] | – | – | 48.75 ± 5.85 |
| COc1ccc(-c2csc(NC(=O)[C@H](CNc3nc4ccccc4o3)NS(=O)(=O)c3ccc(C)cc3)n2)cc1 [Compound 229, (S)-3-(Benzo[d]oxazol-2-ylamino)-N-(4-(4-methoxyphenyl)thiazol-2-yl)-2-(4-methylphenylsulfonamido)propanamide] | – | – | 74.91 ± 2.05 |
| COc1ccc(-c2csc(NC(=O)[C@H](CNC(=O)c3ccccc3)NS(=O)(=O)c3ccc(C)cc3)n2)cc1 [Compound 230, (S)—N-(3-((4-(4-methoxyphenyl)thiazol-2-yl)amino)-2-(4-methylphenylsulfonamido)-3-oxopropyl)benzamide] | – | – | 71.56 ± 1.67 |
| COc1ccc(-c2csc(NC(=O)[C@H](CNC(=O)c3cccnc3)NS(=O)(=O)c3ccc(C)cc3)n2)cc1 [Compound 231, (S)—N-(3-((4-(4-methoxyphenyl)thiazol-2-yl)amino)-2-(4-methylphenylsulfonamido)-3-oxopropyl)nicotinamide] | – | – | 47.63 ± 5.89 |
| COc1ccc(-c2csc(NC(=O)[C@H](CNC(=O)c3cncnc3)NS(=O)(=O)c3ccc(C)cc3)n2)cc1 [Compound 232, (S)—N-(3-((4-(4-methoxyphenyl)thiazol-2-yl)amino)-2-(4-methylphenylsulfonamido)-3-oxopropyl)pyrimidine-5-carboxamide] | – | – | 40.98 ± 2.65 |

Continued, in another order:

| inhibition at 40 µM (AIMP2-DX2) [%] | inhibition at 10 µM (AIMP2-DX2) [%] | SMILES | Cell Viability (% inhibition) (A549) (A549 cells) [%] |
| --- | --- | --- | --- |
| -17.7 ± 16.6 | – | Cc1ccc(S(=O)(=O)N[C@@H](Cc2c[nH]c3ccccc23)C(=O)NCc2cccs2)cc1 [Compound 150, (S)-3-(1H-indol-3-yl)-2-(4-methylphenylsulfonamido)-N-(thiophen-2-ylmethyl)propanamide] | – |
| 26.9 ± 6.7 | – | CC(=O)Nc1cccc(S(=O)(=O)N[C@@H](CC(C)C)C(=O)N2CCOCC2)c1 [Compound 153, (S)—N-(3-(N-(4-methyl-1-morpholino-1-oxopentan-2-yl)sulfamoyl)phenyl)acetamide] | – |
| 40.5 ± 7.7 | – | CC(C)C[C@H](NC(=O)Nc1ccccc1)C(=O)OCc1ccccc1 [Compound 154, (S)-Benzyl 4-methyl-2-(3-phenylureido)pentanoate] | – |
| – | 25.2 ± 9.86 | COc1cc(N2CCN(C(C)=O)CC2)ccc1NC(=O)[C@H](Cc1c[nH]c2ccccc12)NS(=O)(=O)c1ccc(C)cc1 [Compound 161, (S)—N-(4-(4-Acetylpiperazin-1-yl)-2-methoxyphenyl)-3-(1H-indol-3-yl)-2-(4-methylphenylsulfonamido)propanamide] | – |
| 1.52 ± 5.08 | – | Cc1ccc(S(=O)(=O)N[C@@H](Cc2c[nH]c3ccccc23)C(=O)NCc2ccco2)cc1 [Compound 178, (S)—N-(furan-2-ylmethyl)-3-(1H-indol-3-yl)-2-(4-methylphenylsulfonamido)propanamide] | – |
| -4.97 ± 1.37 | – | O=C(NCc1ccco1)[C@H](Cc1c[nH]c2ccccc12)NS(=O)(=O)c1ccc(Br)cc1 [Compound 179, (S)-2-(4-Bromophenylsulfonamido)-N-(furan-2-ylmethyl)-3-(1H-indol-3-yl)propanamide] | – |
| – | 29.6 ± 14 | O=C(Nc1nc(-c2ccc([N+](=O)[O-])cc2)cs1)[C@H](Cc1c[nH]c2ccccc12)NS(=O)(=O)c1ccc(Br)cc1 [Compound 190, (S)-2-(4-Bromophenylsulfonamido)-3-(1H-indol-3-yl)-N-(4-(4-nitrophenyl)thiazol-2-yl)propanamide] | – |
| 45.4 ± 5.61 | 45.4 ± 5.61 | CCCCCCCCCC(=O)NNC(=O)[C@H](Cc1c[nH]c2ccccc12)NS(=O)(=O)c1ccc(Br)cc1 [Compound 195, (S)-4-Bromo-N-(1-(2-decanoylhydrazinyl)-3-(1H-indol-3-yl)-1-oxopropan-2-yl)benzenesulfonamide] | – |
